Like-named read-outs stand apart in the source and are kept apart here. Ends that are not written are not given here.
What was measured:
Type in all cases: cell-based
Cladosporium sp. = system: Cladosporium sp.
Experimental: (§1) The synthetic peptides (see section 2.11) were also screened for antifungal activity against Candida albicans (ATCC 10231), Saccharomyces cerevisiae, Rhodotorula sp., Aureobasidium pullulans and Cladosporium sp. The antifungal assay was performed as described previously. Briefly, fungal spores were dissolved in potato dextrose broth (Difco, Lawrence, KS, USA) to a concentration of 4 × 10^5 spores/ml. The spores (50 μl) were inoculated on 96-well Nunclon^TM microtiter plates containing the synthetic peptides (50 μl) dissolved in MQ-H2O. […] MIC was defined as the lowest concentration of peptide giving no visible fungal growth. The negative (growth) control contained medium and fungal solution.
(§2) ACN-phases and SPE eluates were tested with two-fold serial dilutions ranging from 5.0 to 0.005 mg/ml (5.0, 2.5, 1.25, 0.63, 0.31, 0.16, 0.08, 0.04, 0.02, 0.01, 0.005 mg/ml) whereas HPLC-fractions were tested undiluted for antibacterial activity. Pure, native peptides and synthetic peptides (described in section 2.11) were tested for antimicrobial activity in concentrations ranging from 100 to 0.1 μM in two-fold serial dilutions (100, 50, 25, 12.5, 6.25, 3.13, 1.56, 0.78, 0.39, 0.20, 0.10 μM). Antimicrobial assays involving natural peptides (i.e. fractionated natural material) were run only once due to limited quantities, whereas all other assays were run in triplicates.

Aureobasidium pullulans = system: Aureobasidium pullulans
Experimental: as §1, §2

Saccharomyces cerevisiae = system: Saccharomyces cerevisiae
Experimental: as §1, §2

Rhodotorula sp. = system: Rhodotorula sp.
Experimental: as §1, §2

[1] = system: Candida albicans (ATCC 10231)
Experimental: as §1, §2

[2] = potato dextrose broth, 24 h at room temperature, visual, no visible fungal growth, value of Table 2, triplicates

## WGHKLRSSWNKVKHAVKKGAGYASGACRVLGH [EeCentrocin 2 HC]
Cladosporium sp.; parallel 1 of three
  MIC raw data Cladosporium sp.: 12.5 µM
Cladosporium sp.; parallel 2 of three
  MIC raw data Cladosporium sp.: 12.5 µM
Cladosporium sp.; parallel 3 of three
  MIC raw data Cladosporium sp.: 12.5 µM
Cladosporium sp.; [2]
  MIC Cladosporium sp.: 12.5 µM
Aureobasidium pullulans; parallel 1 of three
  MIC raw data A. pullulans: 25 µM
Aureobasidium pullulans; parallel 2 of three
  MIC raw data A. pullulans: 25 µM
Aureobasidium pullulans; parallel 3 of three
  MIC raw data A. pullulans: 25 µM
Aureobasidium pullulans; [2]
  MIC A. pullulans: 25 µM
Saccharomyces cerevisiae; parallel 1 of three
  MIC raw data S. cerevisiae: 12.5 µM
Saccharomyces cerevisiae; parallel 2 of three
  MIC raw data S. cerevisiae: 12.5 µM
Saccharomyces cerevisiae; parallel 3 of three
  MIC raw data S. cerevisiae: 12.5 µM
Saccharomyces cerevisiae; [2]
  MIC S. cerevisiae: 12.5 µM
Rhodotorula sp.; parallel 1 of three
  MIC raw data Rhodotorula sp.: 3.13 µM
Rhodotorula sp.; parallel 2 of three
  MIC raw data Rhodotorula sp.: 3.13 µM
Rhodotorula sp.; parallel 3 of three
  MIC raw data Rhodotorula sp.: 3.13 µM
Rhodotorula sp.; [2]
  MIC Rhodotorula sp.: 3.13 µM
[1]; parallel 1 of three
  MIC raw data C. albicans: 50 µM
[1]; parallel 2 of three
  MIC raw data C. albicans: 50 µM
[1]; parallel 3 of three
  MIC raw data C. albicans: 25 µM
[1]; [2]
  MIC C. albicans: 50 µM

— PMC4805251, “Novel Antimicrobial Peptides EeCentrocins 1, 2 and EeStrongylocin 2 from the Edible Sea Urchin Echinus esculentus Have 6-Br-Trp Post-Translational Modifications” (PLoS ONE, 2016)
